Assay results from patent publication US12048316B2, “Sweetener and flavor compositions, methods of making and methods of use thereof” (EPC Natural Products Co., Ltd., priority 2018, dated 2024).

Tests used:
[1] = HPLC/MS quantitative evaluation: degradation of reaction partners and formation of MRI at various pH-conditions; assay type: physicochemical; settings: pH = 7.0
Procedure: All samples were analyzed by HPLC/ISIS using following conditions.
Quantitative evaluation was performed using external standardization.

[2] = Assay to test DPPH radical-scavenging activity; assay type: biochemical; settings: combinations of amino acids and Reb-A, 100° C.; less pronounced than glucose or xylose
Procedure: 1 mg 1,1-Diphenyl-2-picrylhydrazyl radical (DPPH)/ml ethanol, dilution to assay concentration were prepared in ethanol (40 μg/mL); Calibration samples were prepared with Ascorbic acid in a concentration of 0-10 μg/mL, as a negative control sample, water was used.
Samples in aqueous solution were used as such or diluted with water.
A 0.1 ml sample (or calibration standard) was mixed with 3.9 ml solution of DPPH (100 μMolar) and reacted while protected from light at room temperature for 30 min. Absorbance was determined at 517 nm against ethanol.
10 mM of amino acid and/or 10 mM sugar were dissolved in 10 ml 0.1 mM KH2PO4-buffer, pH=7.8
The samples were kept at 100° C. in sealed glass vials (Pyrex 15 ml with screw caps) for 0 (before reaction), 2.5 or 5.0 hours. Thereafter the samples were transferred to an ice water bath and cooled down to room temperature. These samples were diluted 1:10 and used for the test assay for anti-oxidant potential.

[3] = relative to sucrose (sugar, cane sugar); depends on the tested concentration; cited from earlier work

SMILES | times sweeter than sucrose / sugar [3] | also measured
O=C[C@H](O)[C@@H](O)[C@H](O)[C@H](O)CO [Glu, Glucose] | – | % degradation ([1]; reaction Phe + Gluc): 4.6%
C=C1C[C@@]23CC[C@H]4[C@@](C)(CCC[C@@]4(C)C(=O)O[C@@H]4O[C@H](CO)[C@@H](O)[C@H](O)[C@H]4O)[C@@H]2CC[C@]1(O[C@@H]1O[C@H](CO)[C@@H](O)[C@H](O[C@@H]2O[C@H](CO)[C@@H](O)[C@H](O)[C@H]2O)[C@H]1O[C@@H]1O[C@H](CO)[C@@H](O)[C@H](O)[C@H]1O)C3 [Reb-A, Rebaudioside A] | – | anti-oxidant properties (iron-III reduction, radical scavenging) [2]: substantial anti-oxidant properties
C=C1C[C@@]23CC[C@H]4[C@@](C)(CCC[C@@]4(C)C(=O)O[C@@H]4O[C@H](CO)[C@@H](O)[C@H](O)[C@H]4O)[C@@H]2CC[C@]1(O[C@@H]1O[C@H](CO)[C@@H](O)[C@H](O)[C@H]1O)C3 [Rubusoside] | 200 times | –
O=C[C@H](O)[C@@H](O)[C@H](O)CO [Xyl, xylose] | – | % degradation ([1]; reaction Phe + Xyl): 6.3%
O=S(=O)([O-])NC1CCCCC1.[Na+] [sodium cyclamate] | about 30 times | –
OC[C@H]1O[C@H](O[C@]2(CCl)O[C@H](CCl)[C@@H](O)[C@@H]2O)[C@H](O)[C@@H](O)[C@H]1Cl [sucralose] | about 600 times | –
